Assay results reported in article PMC4280898, “Diazido Mixed-Amine Platinum(IV) Anticancer Complexes Activatable by Visible-Light Form Novel DNA Adducts” (Chemistry (Weinheim an Der Bergstrasse, Germany), 2013).
“And” between values parts separate entries of the source, which are not always exact repeats. Equal values may be shown once.

How the values were obtained:
pSP73KB plasmid DNA = assay: DNA interstrand cross-linking, denaturing agarose gel; assay type: biochemical; conditions: in the dark
Experimental: Interstrand cross-links: In this experiment, interstrand cross-linking efficiency of photoactivated 1 or 2, and of 5 or 6 in the dark was investigated using pSP73KB plasmid DNA. The DNA samples were treated with complexes 5 or 6 in the dark or with 1 or 2 under irradiation conditions and then were analysed by agarose gel electrophoresis under denaturing conditions. The interstrand cross-linked DNA appears in the autoradiogram as the top bands (Figure 11), which migrate more slowly than the single-strand DNA (the bottom bands). The frequencies of interstrand cross-links formed by photoactivated 1 or 2, and 5 and 6 (in the dark) were 23(±5), 19(±3), 9(±3) and 16(±2) %, respectively.
Figure 11 Agarose gel electrophoresis for quantification of DNA interstrand cross-linking. The interstrand cross-links (ICLs) by: A) 1 or 2 under irradiation conditions (420 nm light), and B) 5 or 6 in the dark were formed in linear pSP73KB plasmid DNA. A) Lane 1: control, non-modified DNA; lane 2: control, non-modified DNA, but irradiated; lanes 3–7: DNA modified by photoactivated 1 at rb=3.35×10^−5, 6.70×10^−5, 3.35×10^−4, 6.70×10^−4, 3.35×10^−3, respectively; lanes 8–12: DNA modified by photoactivated 2 at rb=3.70×10^−5, 7.40×10^−5, 3.70×10^−4, 7.40×10^−4, 3.70×10^−3, respectively. […]

A2780cis cells = assay: SRB proliferation assay for non-light-sensitive complexes, A2780cis; assay type: cell-based, human; conditions: for Resistance factor: A2780cis vs A2780, SRB assay; for IC50: ambient light, 24 h exposure, 72 h recovery, SRB
Experimental: Cytotoxicity of platinum(II) precursors: To investigate the relationship between the Pt^IV diazidodihydroxido complexes and their Pt^II dichlorido analogues trans-[PtCl2(Am1)(Am2)] (where Am=amine), the cytotoxicities of complexes trans-[PtCl2(MA)(Py)] (5) and trans-[PtCl2(MA)(Tz)] (6) towards A2780 and its cisplatin resistant sub-line A2780cis were determined. The toxicity was not photoinduced, as the complexes are not photoactive. Complexes 5 and 6 are highly cytotoxic towards A2780 and A2780cis cells compared to the reported trans-Pt^II compounds.[18]–[22] Complex 5 is about three-times more cytotoxic than complex 6 towards A2780 cells. […]
Cell Culture and Proliferation Assay for Non-light-sensitive Complexes
The A2780 ovarian cell line was obtained from the ECACC (European Collection of Animal Cell Culture, Salisbury, United Kingdom). The cells were maintained in RPMI 1640 media, which was supplemented with 10% foetal calf serum, 1% L-glutamine, and 1% penicillin/streptomycin. All cells were grown at 310 K in an humidified atmosphere containing 5% CO2. Stock solutions of the Pt complexes were freshly prepared in DMSO to assist dissolution and then diluted into saline and medium (maximum final concentration of DMSO 1% and saline 6%). After plating 5000 A2780 cells per well on day 1, Pt complexes were added to the cancer cells on day 3 at concentrations ranging from 0.01 to 100 µM, depending on the preliminary activity data obtained in screening assays. Cells were exposed to the complexes for 24 h, washed with PBS, supplied with fresh medium, and allowed to grow for three doubling times (72 h), and then the protein content (proportional to cell survival) was measured using the sulforhodamine B (SRB) assay.[7] The standard errors are based on two independent experiments of three replicates each.[8]

In the case of `C[NH2+][Pt@SP3-2]([Cl])([Cl])[n+]1ccsc1` [Complex 6, trans-[PtCl2(MA)(Tz)]], the Interstrand cross-link (pSP73KB plasmid DNA) is reported as 16(±2) % and 16±2%, the Resistance factor (A2780cis cells) is reported as 1.0 and the IC50 (A2780cis cells) is reported as 6.8 ± 0.9 µM.
In the case of `C[NH2+][Pt@SP3-2]([Cl])([Cl])[n+]1ccccc1` [Complex 5, trans-[PtCl2(MA)(Py)]], the Interstrand cross-link (pSP73KB plasmid DNA) is reported as 9(±3) % and 9±3%, the Resistance factor (A2780cis cells) is reported as 1.25 and the IC50 (A2780cis cells) is reported as 3 ± 0.7 µM.
